{"source": "patent US20220009920A1", "about": "(GB005, Inc., priority 2020, published 2022)", "assay_in_all_cases": "Large panel kinase profiling", "type_in_all_cases": "biochemical", "conditions_in_all_cases": "1 μM test article, 1 mM ATP", "key": {"AKT2": {"biological_target": "AKT2 (Homo sapiens, UniProt P31751)", "sequence (P31751 whole entry)": "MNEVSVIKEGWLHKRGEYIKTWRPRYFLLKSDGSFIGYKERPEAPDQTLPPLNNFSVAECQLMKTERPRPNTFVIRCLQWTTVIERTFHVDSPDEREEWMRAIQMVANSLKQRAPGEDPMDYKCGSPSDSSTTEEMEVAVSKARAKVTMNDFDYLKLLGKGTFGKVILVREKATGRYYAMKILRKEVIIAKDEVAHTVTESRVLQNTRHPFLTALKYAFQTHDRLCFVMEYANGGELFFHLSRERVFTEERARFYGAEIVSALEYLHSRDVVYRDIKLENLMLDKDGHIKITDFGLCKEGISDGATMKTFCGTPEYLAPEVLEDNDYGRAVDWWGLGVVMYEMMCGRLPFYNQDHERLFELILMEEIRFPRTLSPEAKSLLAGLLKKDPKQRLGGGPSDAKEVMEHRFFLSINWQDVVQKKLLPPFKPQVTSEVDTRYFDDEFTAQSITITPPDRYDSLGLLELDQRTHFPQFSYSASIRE", "protocol": "(§1) Large panel kinase profiling was performed at AssayQuant Technologies, Inc. 260 Cedar Hill Street, Marlborough, Mass. 01752 using the PhosphoSens® CSox-Sensor platform using 1 μM test article concentration and 1 mM ATP concentration (www.assayquant.com). Reactions were run in Corning, half-area 96-well, white flat round bottom polystyrene NBS microplates (Cat. #3642) after sealing using optically-clear adhesive film (TopSealA-Plus plate seal, PerkinElmer), applied with either a roller or a paddle to eliminate evaporation and resulting drift. The standard total reaction volume was 50 μL. All experiments were ran at 30° C. to control for fluctuations in ambient temperature. Plates were read from the top in kinetic mode (readings taken every 1 min), monitoring fluorescence intensity with filters using Ex 360 nm and Em 485 nm and a band width of 40 and 20 nm, respectively, and a gain of 80. Data analysis was performed using either Graphpad Prism or Gene Data Screener software."}, "BRAF(V599E)": {"biological_target": "BRAF(V599E) (Homo sapiens, UniProt P15056, V600E)", "sequence (P15056 whole entry V600E)": "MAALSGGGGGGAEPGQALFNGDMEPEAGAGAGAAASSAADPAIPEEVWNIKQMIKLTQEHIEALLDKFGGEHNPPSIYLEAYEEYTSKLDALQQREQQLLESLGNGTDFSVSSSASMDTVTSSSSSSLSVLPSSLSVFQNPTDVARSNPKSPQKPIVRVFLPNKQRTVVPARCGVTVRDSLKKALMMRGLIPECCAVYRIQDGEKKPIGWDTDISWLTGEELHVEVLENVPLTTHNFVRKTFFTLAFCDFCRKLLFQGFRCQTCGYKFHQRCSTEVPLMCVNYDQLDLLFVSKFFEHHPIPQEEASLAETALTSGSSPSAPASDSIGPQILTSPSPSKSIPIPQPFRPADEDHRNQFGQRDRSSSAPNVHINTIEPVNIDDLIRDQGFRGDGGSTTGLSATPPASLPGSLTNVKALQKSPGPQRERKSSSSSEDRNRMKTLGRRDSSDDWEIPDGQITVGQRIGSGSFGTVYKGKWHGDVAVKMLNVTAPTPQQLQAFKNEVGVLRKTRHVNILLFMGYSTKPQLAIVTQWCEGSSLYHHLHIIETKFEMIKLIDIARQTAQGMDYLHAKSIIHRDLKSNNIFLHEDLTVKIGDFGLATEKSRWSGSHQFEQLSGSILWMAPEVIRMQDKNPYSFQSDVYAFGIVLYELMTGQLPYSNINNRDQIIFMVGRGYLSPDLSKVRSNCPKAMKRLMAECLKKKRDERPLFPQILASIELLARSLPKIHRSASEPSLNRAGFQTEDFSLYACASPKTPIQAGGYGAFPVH", "protocol": "as §1"}, "CDK5/P35": {"biological_target": "T1, CDK5/P35 (Homo sapiens, UniProt Q00535)", "T1 construct": "AssayQuant Technologies, Inc. (ran the panel)", "T1 sequence (Q00535 whole entry, species assumed)": "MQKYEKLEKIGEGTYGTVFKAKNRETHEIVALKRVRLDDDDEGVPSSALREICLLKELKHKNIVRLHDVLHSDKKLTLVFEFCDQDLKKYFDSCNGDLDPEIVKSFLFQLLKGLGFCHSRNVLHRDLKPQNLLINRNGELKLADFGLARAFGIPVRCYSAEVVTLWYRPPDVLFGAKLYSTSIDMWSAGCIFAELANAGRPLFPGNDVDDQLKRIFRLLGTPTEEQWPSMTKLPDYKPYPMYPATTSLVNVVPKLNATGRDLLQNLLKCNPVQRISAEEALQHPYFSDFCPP", "T1 sequence (Q15078 2-307 partner limits assumed, species assumed)": "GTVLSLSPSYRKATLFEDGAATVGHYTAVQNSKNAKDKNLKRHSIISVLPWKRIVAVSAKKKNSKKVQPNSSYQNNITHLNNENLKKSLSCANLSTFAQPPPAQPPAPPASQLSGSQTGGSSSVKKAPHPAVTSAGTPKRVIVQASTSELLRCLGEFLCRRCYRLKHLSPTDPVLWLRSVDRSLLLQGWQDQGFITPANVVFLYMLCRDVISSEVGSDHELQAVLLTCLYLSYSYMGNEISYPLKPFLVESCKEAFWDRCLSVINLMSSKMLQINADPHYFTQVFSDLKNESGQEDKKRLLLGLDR", "protocol": "as §1"}, "CDK6/D1": {"biological_target": "T2, CDK6/D1 (Homo sapiens, UniProt Q00534)", "T2 construct": "AssayQuant Technologies, Inc. (ran the panel)", "protocol": "as §1"}, "CLK2": {"biological_target": "T3, CLK2 (Homo sapiens, UniProt P49760)", "T3 construct": "AssayQuant Technologies, Inc. (service laboratory)", "protocol": "as §1"}, "CLK4": {"biological_target": "T4, CLK4 (Homo sapiens, UniProt Q9HAZ1)", "T4 construct": "AssayQuant Technologies, Inc. (service laboratory)", "protocol": "as §1"}, "EPHB3": {"biological_target": "T5, EPHB3 (Homo sapiens, UniProt P54753)", "T5 sequence (P54753 34-998)": "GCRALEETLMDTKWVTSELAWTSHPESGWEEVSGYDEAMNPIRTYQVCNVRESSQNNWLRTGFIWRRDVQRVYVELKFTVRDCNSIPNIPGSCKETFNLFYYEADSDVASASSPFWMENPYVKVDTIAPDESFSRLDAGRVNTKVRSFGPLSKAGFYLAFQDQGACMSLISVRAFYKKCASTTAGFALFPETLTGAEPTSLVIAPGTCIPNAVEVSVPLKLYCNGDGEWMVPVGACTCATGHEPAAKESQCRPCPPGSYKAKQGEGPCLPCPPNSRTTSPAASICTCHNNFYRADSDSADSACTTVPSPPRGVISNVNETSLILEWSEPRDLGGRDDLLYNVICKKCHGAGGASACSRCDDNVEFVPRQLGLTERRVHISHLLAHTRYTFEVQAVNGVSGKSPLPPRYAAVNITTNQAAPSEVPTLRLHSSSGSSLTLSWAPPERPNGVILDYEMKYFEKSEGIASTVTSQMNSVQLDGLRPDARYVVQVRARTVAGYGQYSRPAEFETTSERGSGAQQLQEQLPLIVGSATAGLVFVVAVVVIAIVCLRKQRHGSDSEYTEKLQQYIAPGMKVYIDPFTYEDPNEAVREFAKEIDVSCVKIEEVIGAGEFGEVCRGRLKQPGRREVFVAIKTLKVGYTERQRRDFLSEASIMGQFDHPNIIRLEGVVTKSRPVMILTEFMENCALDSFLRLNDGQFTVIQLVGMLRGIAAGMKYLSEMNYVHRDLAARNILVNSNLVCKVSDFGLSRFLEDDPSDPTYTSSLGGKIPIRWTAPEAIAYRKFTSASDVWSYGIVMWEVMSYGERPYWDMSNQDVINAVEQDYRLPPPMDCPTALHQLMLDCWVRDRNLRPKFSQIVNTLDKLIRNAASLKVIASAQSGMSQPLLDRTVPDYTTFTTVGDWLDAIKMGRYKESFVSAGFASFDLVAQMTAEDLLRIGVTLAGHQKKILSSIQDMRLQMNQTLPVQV", "protocol": "as §1"}, "MAP3K13": {"biological_target": "T6, MAP3K13 (Homo sapiens, UniProt O43283)", "T6 sequence (O43283 1-966)": "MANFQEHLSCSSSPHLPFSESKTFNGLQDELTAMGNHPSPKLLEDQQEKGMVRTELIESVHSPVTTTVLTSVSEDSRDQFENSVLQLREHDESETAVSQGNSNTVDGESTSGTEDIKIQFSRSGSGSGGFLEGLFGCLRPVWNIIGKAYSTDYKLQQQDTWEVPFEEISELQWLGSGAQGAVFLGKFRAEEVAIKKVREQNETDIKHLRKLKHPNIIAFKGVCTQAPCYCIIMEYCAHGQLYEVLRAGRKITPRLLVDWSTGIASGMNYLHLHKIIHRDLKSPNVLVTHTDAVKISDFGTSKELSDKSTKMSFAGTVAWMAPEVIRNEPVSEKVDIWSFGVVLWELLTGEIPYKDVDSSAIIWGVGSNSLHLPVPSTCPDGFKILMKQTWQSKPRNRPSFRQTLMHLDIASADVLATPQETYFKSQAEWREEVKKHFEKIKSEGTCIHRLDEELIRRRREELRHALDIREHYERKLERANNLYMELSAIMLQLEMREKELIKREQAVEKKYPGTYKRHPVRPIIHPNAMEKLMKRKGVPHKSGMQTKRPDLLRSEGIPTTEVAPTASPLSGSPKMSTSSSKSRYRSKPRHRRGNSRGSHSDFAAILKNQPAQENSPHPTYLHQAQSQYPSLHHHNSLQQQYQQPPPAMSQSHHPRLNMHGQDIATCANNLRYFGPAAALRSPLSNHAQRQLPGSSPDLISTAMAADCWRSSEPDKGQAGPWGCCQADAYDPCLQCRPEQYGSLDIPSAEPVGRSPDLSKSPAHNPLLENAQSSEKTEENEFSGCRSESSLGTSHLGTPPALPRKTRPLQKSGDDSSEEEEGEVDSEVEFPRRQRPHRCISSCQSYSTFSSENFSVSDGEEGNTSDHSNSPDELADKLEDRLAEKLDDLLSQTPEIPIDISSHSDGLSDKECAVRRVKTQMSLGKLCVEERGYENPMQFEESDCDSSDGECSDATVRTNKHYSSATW", "protocol": "as §1"}, "MAPK1/ERK2": {"biological_target": "T7, MAPK1/ERK2 (Homo sapiens, UniProt P28482)", "T7 construct": "AssayQuant Technologies, Inc. (service provider)", "protocol": "as §1"}, "MAPK3/ERK1": {"biological_target": "T8, MAPK3/ERK1 (Homo sapiens, UniProt P27361)", "T8 construct": "AssayQuant Technologies, Inc. (service provider)", "protocol": "as §1"}, "NEK7": {"biological_target": "T9, NEK7 (Homo sapiens, UniProt Q8TDX7)", "T9 construct": "AssayQuant Technologies, Inc. (assay service)", "protocol": "as §1"}}, "data": [{"compound": "C=CC(=O)N1CCCC(c2c(F)cc(C(N)=O)c3[nH]c4c(c23)CCCCC4)C1", "note": "(single isomer, unassigned) [Compound 5-6]", "values": [{"measurement": "inhibition at 1 µM", "setting": "AKT2", "value": 0.5, "unit": "%"}, {"measurement": "inhibition at 1 µM", "setting": "BRAF(V599E)", "value": -13.2, "unit": "%"}, {"measurement": "inhibition at 1 µM", "setting": "CDK5/P35", "value": -13.2, "unit": "%"}, {"measurement": "inhibition at 1 µM", "setting": "CDK6/D1", "value": -5.8, "unit": "%"}, {"measurement": "inhibition at 1 µM", "setting": "CLK2", "value": 0.7, "unit": "%"}, {"measurement": "inhibition at 1 µM", "setting": "CLK4", "value": 12.3, "unit": "%"}, {"measurement": "inhibition at 1 µM", "setting": "EPHB3", "value": 17.6, "unit": "%"}, {"measurement": "inhibition at 1 µM", "setting": "MAP3K13", "value": 3.6, "unit": "%"}, {"measurement": "inhibition at 1 µM", "setting": "MAPK1/ERK2", "value": -4.4, "unit": "%"}, {"measurement": "inhibition at 1 µM", "setting": "MAPK3/ERK1", "value": -22.1, "unit": "%"}, {"measurement": "inhibition at 1 µM", "setting": "NEK7", "value": 14.6, "unit": "%"}]}, {"compound": "C=CC(=O)N1CCC[C@@H](c2c(F)cc(C(N)=O)c3[nH]c4c(c23)CC2(CC4)CC2)C1", "note": "[Compound 6-2, (S)-5-(1-acryloylpiperidin-3-yl)-6-fluoro-1,2,4,9-tetrahydrospiro[carbazole-3,1′-cyclopropane]-8-carboxamide]", "values": [{"measurement": "inhibition at 1 µM", "setting": "AKT2", "value": 0.4, "unit": "%"}, {"measurement": "inhibition at 1 µM", "setting": "BRAF(V599E)", "value": -4.9, "unit": "%"}, {"measurement": "inhibition at 1 µM", "setting": "CDK5/P35", "value": -37.5, "unit": "%"}, {"measurement": "inhibition at 1 µM", "setting": "CDK6/D1", "value": -4.3, "unit": "%"}, {"measurement": "inhibition at 1 µM", "setting": "CLK2", "value": -4.6, "unit": "%"}, {"measurement": "inhibition at 1 µM", "setting": "CLK4", "value": 6.5, "unit": "%"}, {"measurement": "inhibition at 1 µM", "setting": "EPHB3", "value": -24.4, "unit": "%"}, {"measurement": "inhibition at 1 µM", "setting": "MAP3K13", "value": 16.1, "unit": "%"}, {"measurement": "inhibition at 1 µM", "setting": "MAPK1/ERK2", "value": -3.8, "unit": "%"}, {"measurement": "inhibition at 1 µM", "setting": "MAPK3/ERK1", "value": 22.7, "unit": "%"}, {"measurement": "inhibition at 1 µM", "setting": "NEK7", "value": 13.8, "unit": "%"}]}, {"compound": "C=CC(=O)N1CCC[C@@H](c2c(F)cc(C(N)=O)c3[nH]c4c(c23)CCC4)C1", "note": "[Compound 10-2, (S)-8-(1-acryloylpiperidin-3-yl)-7-fluoro-1,2,3,4-tetrahydrocyclo-penta[b]indole-5-carboxamide]", "values": [{"measurement": "inhibition at 1 µM", "setting": "AKT2", "value": 11.9, "unit": "%"}, {"measurement": "inhibition at 1 µM", "setting": "BRAF(V599E)", "value": 4.3, "unit": "%"}, {"measurement": "inhibition at 1 µM", "setting": "CDK5/P35", "value": 2.9, "unit": "%"}, {"measurement": "inhibition at 1 µM", "setting": "CDK6/D1", "value": 12.8, "unit": "%"}, {"measurement": "inhibition at 1 µM", "setting": "CLK2", "value": -3.2, "unit": "%"}, {"measurement": "inhibition at 1 µM", "setting": "CLK4", "value": 2.7, "unit": "%"}, {"measurement": "inhibition at 1 µM", "setting": "EPHB3", "value": -10.1, "unit": "%"}, {"measurement": "inhibition at 1 µM", "setting": "MAP3K13", "value": 3.2, "unit": "%"}, {"measurement": "inhibition at 1 µM", "setting": "MAPK1/ERK2", "value": -8.8, "unit": "%"}, {"measurement": "inhibition at 1 µM", "setting": "MAPK3/ERK1", "value": 5.5, "unit": "%"}, {"measurement": "inhibition at 1 µM", "setting": "NEK7", "value": -22.6, "unit": "%"}]}]}
